Numbers after ± are expanded uncertainties.
Assay: mn = molality of the nth substance listed, in mol/kg
Conditions: for surface tension liquid-gas: Pendant drop shape; for electrical conductivity: 100 kPa, Liquid, Mettler Toledo inLab 710

CCCCCCCCCCCC[N+](C)(C)CCCCCC[N+](C)(C)CCCCCCCCCCCC.[Br-].[Br-] + O
Conditions | electrical conductivity [S/m] | surface tension liquid-gas [mN/m]
298.15 K, m1 = 0.0001 | – | 61.45 ± 2
298.15 K, m1 = 0.0002 | – | 53.1 ± 1
298.15 K, m1 = 0.0004 | – | 47.33 ± 0.7
298.15 K, m1 = 0.00056 | 0.0115 ± 0.0005 | –
298.15 K, m1 = 0.00059 | 0.0123 ± 0.0005 | –
298.15 K, m1 = 0.0006 | – | 42.35 ± 0.64
298.15 K, m1 = 0.00063 | 0.0132 ± 0.0004 | –
298.15 K, m1 = 0.00067 | 0.0138 ± 0.0004 | –
298.15 K, m1 = 0.0007 | – | 40.01 ± 0.57
298.15 K, m1 = 0.00071 | 0.0147 ± 0.0004 | –
298.15 K, m1 = 0.00077 | 0.0159 ± 0.0004 | –
298.15 K, m1 = 0.0008 | – | 38.21 ± 0.46
298.15 K, m1 = 0.00083 | 0.017 ± 0.0004 | –
298.15 K, m1 = 0.00085 | – | 38.13 ± 0.38
298.15 K, m1 = 0.00087 | 0.0176 ± 0.0004 | –
298.15 K, m1 = 0.0009 | – | 37.83 ± 0.38
298.15 K, m1 = 0.00091 | 0.0182 ± 0.0004 | –
298.15 K, m1 = 0.00095 | 0.0188 ± 0.0003 | –
298.15 K, m1 = 0.001 | 0.0194 ± 0.0003 | 37.53 ± 0.37
298.15 K, m1 = 0.00105 | 0.02 ± 0.0003 | –
298.15 K, m1 = 0.0011 | – | 37.34 ± 0.37
298.15 K, m1 = 0.00111 | 0.0206 ± 0.0003 | –
298.15 K, m1 = 0.00118 | 0.0212 ± 0.0003 | –
298.15 K, m1 = 0.0012 | – | 37.28 ± 0.37
298.15 K, m1 = 0.00125 | 0.0219 ± 0.0003 | –
298.15 K, m1 = 0.00133 | 0.0225 ± 0.0003 | –
298.15 K, m1 = 0.00143 | 0.0231 ± 0.0003 | –
298.15 K, m1 = 0.0015 | – | 37.38 ± 0.37
298.15 K, m1 = 0.00154 | 0.024 ± 0.0003 | –
298.15 K, m1 = 0.00167 | 0.0249 ± 0.0003 | –
298.15 K, m1 = 0.00182 | 0.0259 ± 0.0003 | –
298.15 K, m1 = 0.002 | 0.0269 ± 0.0003 | 37.23 ± 0.37
303.15 K, m1 = 0.00057 | 0.0136 ± 0.0005 | –
303.15 K, m1 = 0.00061 | 0.0143 ± 0.0004 | –
303.15 K, m1 = 0.00065 | 0.0151 ± 0.0004 | –
303.15 K, m1 = 0.00068 | 0.0158 ± 0.0005 | –
303.15 K, m1 = 0.00071 | 0.0166 ± 0.0005 | –
303.15 K, m1 = 0.00075 | 0.0173 ± 0.0004 | –
303.15 K, m1 = 0.0008 | 0.0183 ± 0.0004 | –
303.15 K, m1 = 0.00083 | 0.0189 ± 0.0004 | –
303.15 K, m1 = 0.00087 | 0.0196 ± 0.0004 | –
303.15 K, m1 = 0.00091 | 0.0202 ± 0.0004 | –
303.15 K, m1 = 0.00095 | 0.0209 ± 0.0004 | –
303.15 K, m1 = 0.001 | 0.0216 ± 0.0004 | –
303.15 K, m1 = 0.00105 | 0.0223 ± 0.0003 | –
303.15 K, m1 = 0.00111 | 0.023 ± 0.0003 | –
303.15 K, m1 = 0.00118 | 0.0237 ± 0.0003 | –
303.15 K, m1 = 0.00125 | 0.0244 ± 0.0003 | –
303.15 K, m1 = 0.00133 | 0.0252 ± 0.0003 | –
303.15 K, m1 = 0.00143 | 0.0261 ± 0.0003 | –
303.15 K, m1 = 0.00154 | 0.027 ± 0.0003 | –
303.15 K, m1 = 0.0016 | 0.0276 ± 0.0003 | –
303.15 K, m1 = 0.00167 | 0.0281 ± 0.0003 | –
303.15 K, m1 = 0.00174 | 0.0287 ± 0.0003 | –
303.15 K, m1 = 0.00182 | 0.0293 ± 0.0003 | –
303.15 K, m1 = 0.0019 | 0.03 ± 0.0003 | –
303.15 K, m1 = 0.002 | 0.0307 ± 0.0003 | –
308.15 K, m1 = 0.00065 | 0.0167 ± 0.0006 | –
308.15 K, m1 = 0.00068 | 0.0175 ± 0.0005 | –
308.15 K, m1 = 0.00071 | 0.0182 ± 0.0005 | –
308.15 K, m1 = 0.00075 | 0.0193 ± 0.0005 | –
308.15 K, m1 = 0.0008 | 0.0203 ± 0.0004 | –
308.15 K, m1 = 0.00083 | 0.0209 ± 0.0005 | –
308.15 K, m1 = 0.00087 | 0.0217 ± 0.0005 | –
308.15 K, m1 = 0.00091 | 0.0225 ± 0.0004 | –
308.15 K, m1 = 0.00095 | 0.0232 ± 0.0004 | –
308.15 K, m1 = 0.001 | 0.024 ± 0.0004 | –
308.15 K, m1 = 0.00105 | 0.0248 ± 0.0004 | –
308.15 K, m1 = 0.00111 | 0.0257 ± 0.0004 | –
308.15 K, m1 = 0.00118 | 0.0266 ± 0.0004 | –
308.15 K, m1 = 0.00125 | 0.0275 ± 0.0004 | –
308.15 K, m1 = 0.00133 | 0.0284 ± 0.0004 | –
308.15 K, m1 = 0.00143 | 0.0294 ± 0.0004 | –
308.15 K, m1 = 0.00154 | 0.0306 ± 0.0004 | –
308.15 K, m1 = 0.0016 | 0.0312 ± 0.0004 | –
308.15 K, m1 = 0.00167 | 0.0318 ± 0.0004 | –
308.15 K, m1 = 0.00174 | 0.0325 ± 0.0004 | –
308.15 K, m1 = 0.00182 | 0.0332 ± 0.0004 | –
308.15 K, m1 = 0.0019 | 0.0339 ± 0.0004 | –
308.15 K, m1 = 0.002 | 0.0346 ± 0.0004 | –
313.15 K, m1 = 0.00057 | 0.0163 ± 0.0004 | –
313.15 K, m1 = 0.00061 | 0.0171 ± 0.0005 | –
313.15 K, m1 = 0.00065 | 0.0182 ± 0.0006 | –
313.15 K, m1 = 0.00068 | 0.0191 ± 0.0007 | –
313.15 K, m1 = 0.00071 | 0.02 ± 0.0005 | –
313.15 K, m1 = 0.00075 | 0.021 ± 0.0005 | –
313.15 K, m1 = 0.0008 | 0.0222 ± 0.0006 | –
313.15 K, m1 = 0.00083 | 0.023 ± 0.0006 | –
313.15 K, m1 = 0.00087 | 0.024 ± 0.0005 | –
313.15 K, m1 = 0.00091 | 0.0248 ± 0.0005 | –
313.15 K, m1 = 0.00095 | 0.0259 ± 0.0005 | –
313.15 K, m1 = 0.001 | 0.0269 ± 0.0005 | –
313.15 K, m1 = 0.00105 | 0.0278 ± 0.0004 | –
313.15 K, m1 = 0.00111 | 0.0288 ± 0.0004 | –
313.15 K, m1 = 0.00118 | 0.0299 ± 0.0004 | –
313.15 K, m1 = 0.00125 | 0.0308 ± 0.0004 | –
313.15 K, m1 = 0.00133 | 0.0321 ± 0.0004 | –
313.15 K, m1 = 0.00143 | 0.0333 ± 0.0004 | –
313.15 K, m1 = 0.00154 | 0.0347 ± 0.0004 | –
313.15 K, m1 = 0.0016 | 0.0353 ± 0.0004 | –
313.15 K, m1 = 0.00167 | 0.036 ± 0.0004 | –
313.15 K, m1 = 0.00174 | 0.0368 ± 0.0004 | –
313.15 K, m1 = 0.00182 | 0.0376 ± 0.0004 | –
313.15 K, m1 = 0.0019 | 0.0384 ± 0.0004 | –
313.15 K, m1 = 0.002 | 0.0392 ± 0.0005 | –
318.15 K, m1 = 0.00057 | 0.0184 ± 0.0005 | –
318.15 K, m1 = 0.00061 | 0.0193 ± 0.0005 | –
318.15 K, m1 = 0.00065 | 0.0206 ± 0.0008 | –
318.15 K, m1 = 0.00069 | 0.0222 ± 0.0007 | –
318.15 K, m1 = 0.00074 | 0.0237 ± 0.0006 | –
318.15 K, m1 = 0.0008 | 0.0254 ± 0.0006 | –
318.15 K, m1 = 0.00085 | 0.0265 ± 0.0006 | –
318.15 K, m1 = 0.00091 | 0.0281 ± 0.0006 | –
318.15 K, m1 = 0.00095 | 0.0292 ± 0.0006 | –
318.15 K, m1 = 0.001 | 0.0302 ± 0.0005 | –
318.15 K, m1 = 0.00104 | 0.031 ± 0.0005 | –
318.15 K, m1 = 0.00109 | 0.0318 ± 0.0005 | –
318.15 K, m1 = 0.00114 | 0.0328 ± 0.0005 | –
318.15 K, m1 = 0.00119 | 0.0337 ± 0.0005 | –
318.15 K, m1 = 0.00125 | 0.0347 ± 0.0005 | –
318.15 K, m1 = 0.00132 | 0.0358 ± 0.0005 | –
318.15 K, m1 = 0.00139 | 0.0368 ± 0.0005 | –
318.15 K, m1 = 0.00147 | 0.038 ± 0.0005 | –
318.15 K, m1 = 0.00156 | 0.0393 ± 0.0005 | –
318.15 K, m1 = 0.00167 | 0.0406 ± 0.0005 | –
318.15 K, m1 = 0.00172 | 0.0413 ± 0.0005 | –
318.15 K, m1 = 0.00179 | 0.042 ± 0.0005 | –
318.15 K, m1 = 0.00185 | 0.0428 ± 0.0005 | –
318.15 K, m1 = 0.00192 | 0.0437 ± 0.0005 | –
318.15 K, m1 = 0.002 | 0.0446 ± 0.0005 | –
323.15 K, m1 = 0.00065 | 0.022 ± 0.0008 | –
323.15 K, m1 = 0.00069 | 0.0235 ± 0.0007 | –
323.15 K, m1 = 0.00074 | 0.025 ± 0.0007 | –
323.15 K, m1 = 0.0008 | 0.0271 ± 0.0007 | –
323.15 K, m1 = 0.00085 | 0.0288 ± 0.0007 | –
323.15 K, m1 = 0.00091 | 0.0305 ± 0.0007 | –
323.15 K, m1 = 0.00095 | 0.0317 ± 0.0007 | –
323.15 K, m1 = 0.001 | 0.0331 ± 0.0007 | –
323.15 K, m1 = 0.00104 | 0.0343 ± 0.0006 | –
323.15 K, m1 = 0.00109 | 0.0355 ± 0.0006 | –
323.15 K, m1 = 0.00114 | 0.0367 ± 0.0006 | –
323.15 K, m1 = 0.00119 | 0.038 ± 0.0006 | –
323.15 K, m1 = 0.00125 | 0.0393 ± 0.0006 | –
323.15 K, m1 = 0.00132 | 0.0406 ± 0.0005 | –
323.15 K, m1 = 0.00139 | 0.0418 ± 0.0006 | –
323.15 K, m1 = 0.00147 | 0.0433 ± 0.0005 | –
323.15 K, m1 = 0.00156 | 0.0443 ± 0.0005 | –
323.15 K, m1 = 0.00167 | 0.0455 ± 0.0005 | –
323.15 K, m1 = 0.00172 | 0.0464 ± 0.0006 | –
323.15 K, m1 = 0.00179 | 0.0473 ± 0.0006 | –
323.15 K, m1 = 0.00185 | 0.0482 ± 0.0006 | –
323.15 K, m1 = 0.00192 | 0.0491 ± 0.0006 | –
323.15 K, m1 = 0.002 | 0.0501 ± 0.0006 | –

— the NIST ThermoML archive (doi:10.1021/je500513b)
